Test results: paper PMC5964033 (Journal of inorganic biochemistry, 2018)
Values joined by “and” are separate entries in the source; they are usually repeats but may differ in a detail not shown here. Equal entries are not always repeated. “Also recorded” adds a separate entry of the source. Where two headings read alike, the source gives them in different places.

What was measured:
CYP2J2 [1] = target: T1, CYP2J2 (Homo sapiens, UniProt P51589); details: at saturating concentrations, CYP2J2-NDs
T1 sequence (P51589 1-502): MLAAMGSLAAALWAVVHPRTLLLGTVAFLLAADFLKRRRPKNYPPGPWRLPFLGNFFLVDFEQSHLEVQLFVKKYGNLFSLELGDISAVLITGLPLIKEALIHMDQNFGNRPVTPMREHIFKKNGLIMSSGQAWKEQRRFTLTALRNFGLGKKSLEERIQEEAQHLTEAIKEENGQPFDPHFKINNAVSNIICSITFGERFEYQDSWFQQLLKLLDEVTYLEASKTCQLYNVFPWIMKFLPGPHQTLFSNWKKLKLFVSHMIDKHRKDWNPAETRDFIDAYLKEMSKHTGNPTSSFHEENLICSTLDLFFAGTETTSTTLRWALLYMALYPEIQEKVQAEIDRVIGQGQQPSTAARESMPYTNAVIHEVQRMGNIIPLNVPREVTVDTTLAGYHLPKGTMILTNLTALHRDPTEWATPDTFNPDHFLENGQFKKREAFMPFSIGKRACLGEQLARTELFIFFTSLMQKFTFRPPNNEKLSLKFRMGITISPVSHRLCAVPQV

CYP2J2 [2] = target: T1, CYP2J2; type: in vitro ADME
CYP2J2 [3] = target: T1, CYP2J2; details: formation of mono-oxygenated product; for Vmax: 5–60 µM pCB, 30 min, 37°C
CYP2J2 [4] = target: T1, CYP2J2; test: Identification of pCB metabolites formed by CYP2J2; type: in vitro ADME; details: major mono-oxygenated product(s) of CYP2J2 metabolism
CYP2J2 [5] = target: T1, CYP2J2; test: Inhibition of CYP2J2-mediated AEA metabolism by pCBs; type: biochemical; details: for Type of AEA Metabolism Inhibition / Ki: 30 µM pCB; for Type of AEA Metabolism Inhibition: model of inhibition; for Ki: CYP2J2-ND/CPR; for apparent Vmax of AEA metabolism, % of the uninhibited enzyme: in the presence of 30 µM pCB
[6] = system: fatty acid amide hydrolase (FAAH); details: cited from earlier work
CYP2J2 [7] = target: T1, CYP2J2; test: biochemical
Rhesus monkeys = details: cited from earlier work
other animal models = details: cited from earlier work
humans = details: cited from earlier work
CYP2J2 [8] = target: T1, CYP2J2; details: directly from Soret titration or through inhibition of ebastine binding
not read [9] = substrate: CCCCC/C=C\C/C=C\C/C=C\C/C=C\CCCC(=O)NCCO; test: not read; type: in vitro ADME; details: other: total EET-EAs formed, CYP2J2-ND/CPR; pH 7.4
not read [10] = substrate: CCCCCc1cc(O)c(C/C=C(\C)CCC=C(C)C)c(O)c1; test: not read; details: other: formation of mono-oxygenated product; pH 7.4; 37.0 °C
[11] = read-out: Ki, AEA Metabolism Inhibition

With `CCCCC/C=C\C/C=C\C/C=C\C/C=C\CCCC(=O)NCCO` [AEA, anandamide] the high-spin shift (CYP2J2 [1]) was “did not produce a significant change in the high-spin content”, the “Metabolite(s)” value (CYP2J2 [2]; AEA metabolism by CYP2J2-NDs) was “EET-EAs” and the Vmax (CYP2J2 [2]; total EET-EAs formed, CYP2J2-ND/CPR) was 135 ± 14.0 pmol · min^−1 · nmolCYP2J2^−1 and 135 ± 14 pmol · min^−1 · nmolCYP2J2^−1.

For `CCCCCc1cc(O)c2c(c1)OC(C)(CCC=C(C)C)C=C2` (stereo not drawn) [CBC, cannabichromene], the Vmax (CYP2J2 [3]) was 371 ± 134 pmol · min^−1 · nmolCYP2J2^−1, the “Metabolite(s)” value (CYP2J2 [4]) was -1”-OH and the “Type of AEA Metabolism Inhibition” value (CYP2J2 [5]) was “Noncompetitive”. The Ki (CYP2J2 [5]; Ki, AEA Metabolism Inhibition) was 21.1 ± 1.4 µM, the “apparent Vmax of AEA metabolism, % of the uninhibited enzyme” value (CYP2J2 [5]) was 20–45% and the high-spin shift (CYP2J2 [1]) was “did not produce a significant change in the high-spin content”.

In the case of `C=C(C)[C@@H]1CCC(C)=C[C@H]1c1c(O)cc(CCCCC)cc1O` [CBD, cannabidiol, reference compound], the “inhibition of FAAH” value [6] is listed as “weakly inhibited”, the Vmax (CYP2J2 [3]) is listed as 372 ± 100 pmol · min^−1 · nmolCYP2J2^−1 and the “Metabolite(s)” value (CYP2J2 [4]) is listed as -7-OH + -1”-OH. The “Type of AEA Metabolism Inhibition” value (CYP2J2 [5]) was “Noncompetitive”, the Ki (CYP2J2 [5]; Ki, AEA Metabolism Inhibition) was 16.9 ± 1.1 µM and the “apparent Vmax of AEA metabolism, % of the uninhibited enzyme” value (CYP2J2 [5]) was 20–45%. The high-spin shift (CYP2J2 [1]) was 32% and the Kd (CYP2J2 [7]) was 11.5 ± 3 µM.

With `CCCCCc1cc(O)c(C/C=C(\C)CCC=C(C)C)c(O)c1` [CBG, cannabigerol] the Vmax (CYP2J2 [3]) was 123 ± 14 pmol · min^−1 · nmolCYP2J2^−1, the “Metabolite(s)” value (CYP2J2 [4]) was -1”-OH and the “Type of AEA Metabolism Inhibition” value (CYP2J2 [5]) was “competitively; also recorded: Competitive”. For the same molecule, the Ki (CYP2J2 [5]; Ki, AEA Metabolism Inhibition) was 10.8 ± 1.4 µM, the high-spin shift (CYP2J2 [1]) was 48% and the Kd (CYP2J2 [7]) was 11.1 ± 1.2 µM.

With `CCCCCc1cc(O)c2c(c1)OC(C)(C)c1ccc(C)cc1-2` [CBN, cannabinol] the “Metabolite(s)” value (CYP2J2 [4]) was -1’-OH or -11-OH, the “Type of AEA Metabolism Inhibition” value (CYP2J2 [5]) was “Noncompetitive” and the Ki (CYP2J2 [5]; Ki, AEA Metabolism Inhibition) was 19.4 ± 2 µM. For the same molecule, the “apparent Vmax of AEA metabolism, % of the uninhibited enzyme” value (CYP2J2 [5]) was 20–45% and the high-spin shift (CYP2J2 [1]) was 38%.

For `CCCCCc1cc(O)c2c(c1)OC(C)(C)[C@@H]1CC=C(C)C[C@@H]21` [Δ8-THC, Δ8-tetrahydrocannabinol], the Km (CYP2J2 [3]) was 8.52 ± 5.3 µM, the Vmax (CYP2J2 [3]) was 80.9 ± 14.3 pmol · min^−1 · nmolCYP2J2^−1 and the “Metabolite(s)” value (CYP2J2 [4]) was -1’-OH. For the same molecule, the “Type of AEA Metabolism Inhibition” value (CYP2J2 [5]) was “Noncompetitive”, the “apparent Vmax of AEA metabolism, % of the uninhibited enzyme” value (CYP2J2 [5]) was 20–45% and the Ki (CYP2J2 [5]; [11]) was 20.2 ± 1.9 µM. The high-spin shift (CYP2J2 [1]) was “did not produce a significant change in the high-spin content”.

In the case of `CCCCC(O)c1cc(O)c2c(c1)OC(C)(C)C1CC=C(C)CC21` (stereo not drawn) [Δ8-THC-1’-OH], the “induction of behavioral changes associated with cannabis use” value (Rhesus monkeys) is given as “least effective”.

For `CCCCCc1cc(O)c2c(c1)OC(C)(C)[C@@H]1CCC(C)=C[C@@H]21` [Δ9-THC, Δ9-tetrahydrocannabinol, reference compound], the “effect on heart rate in other animal models” value (other animal models) is listed as “induces bradycardia”, the Km (CYP2J2 [3]) is listed as 11.9 ± 4.8 µM and the Vmax (CYP2J2 [3]) is listed as 211 ± 28 pmol · min^−1 · nmolCYP2J2^−1. The “Metabolite(s)” value (CYP2J2 [4]) was -1’-OH, the “Type of AEA Metabolism Inhibition” value (CYP2J2 [5]) was “Noncompetitive” and the “apparent Vmax of AEA metabolism, % of the uninhibited enzyme” value (CYP2J2 [5]) was 20% and 20–45%. The Ki (CYP2J2 [5]; [11]) was 9.86 ± 0.45 µM, the high-spin shift (CYP2J2 [1]) was “did not produce a significant change in the high-spin content” and the “effect on heart rate in humans” value (humans) was “induces tachycardia”. The binding affinity (CYP2J2 [8]) was “weakest”.

B1: CYP2J2 (Homo sapiens) (protein)
chain: T1 sequence (P51589 1-502)
Work on B1 yielded a Km (not read [9]) of 30.9 ± 7.3 µM and a Km (not read [10]) of 8.27 ± 3.24 µM.
